≈ marks a conversion by molar mass, not a printed value.
How the values were obtained:
[1] = tested on: Staphylococcus aureus Smith (MSSA); assay: Broth microdilution MIC, S. aureus Smith; format: cell-based; conditions: Staphylococcus aureus Smith (MSSA)
Method: (§1) Compounds were evaluated for antimicrobial activity against a panel of bacterial strains using a broth microdilution assay performed as recommended by the NCCLS (NCCLS (National Committee for Clinical Laboratory Standards). 1993. Methods for dilution antimicrobial susceptibility tests for bacteria that grow aerobically. NCCLS Document M7-A3, 1993. In: NCCLS Antimicrobial Susceptibility Testing, 3rd Ed.)
(§2) The minimum inhibitory concentration (MIC) is defined as the lowest concentration of a compound that prevents the growth of the bacteria.

[2] = tested on: Staphylococcus aureus ATCC 29213 (MSSA); assay: Broth microdilution MIC, S. aureus ATCC 29213; format: cell-based; conditions: Staphylococcus aureus ATCC 29213 (MSSA); for MIC: read-out: MIC S. a. 29213
Method: as §1, §2

[3] = tested on: Staphylococcus aureus COL (MRSA, non-β-lactamase producing); assay: Broth microdilution MIC, S. aureus COL; format: cell-based; conditions: Staphylococcus aureus COL (MRSA, non-β-lactamase producing); for MIC: read-out: MIC S. a. COL
Method: as §1, §2

[4] = tested on: Staphylococcus aureus 76 (MRSA, β-lactamase producing); assay: Broth microdilution MIC, S. aureus 76; format: cell-based; conditions: Staphylococcus aureus 76 (MRSA, β-lactamase producing); for MIC: read-out: MIC S. a. 76
Method: as §1, §2

[5] = tested on: Enterococcus faecalis ATCC 29212; assay: Broth microdilution MIC, E. faecalis ATCC 29212; format: cell-based; conditions: Enterococcus faecalis ATCC 29212; for MIC: ATCC29212, read-out: MIC E. f. 29212
Method: as §1, §2

[6] = tested on: Enterococcus faecium ATCC 35667; assay: Broth microdilution MIC, E. faecium ATCC 35667; format: cell-based; conditions: Enterococcus faecium ATCC 35667; for MIC: ATCC35667, read-out: MIC E. f. 35667
Method: as §1, §2

[7] = Human serum binding by ultrafiltration; format: in vitro ADME
Method: Binding of several representative compounds of this invention in pooled human serum was determined using ultrafiltration. Compounds were incubated in serum for 10 minutes at 37° C. in a shaking water bath. Serum ultrafiltrate was accomplished by centrifugation (Amicon Centrifree) for 20 minutes at 25° C. Compound content in the ultrafiltrate was quantified by HPLC. An ultrafilrate obtained by following the same procedure with no added compound was used as a standard.

SMILES | MIC ([1]; read-out: MIC S. a. Smith) | MIC [2] | MIC [3] | MIC [4] | MIC [5] | MIC [6] | MIC S. a. 29213 [2] | MIC S. a. 76 [4] | MIC E. f. 29212 [5] | MIC E. f. 35667 [6] | MIC S. a. COL [3] | MIC S. a. Smith [1] | HSB, human serum binding [7]
Cc1noc(SC2=C(C(=O)O)N3C(=O)[C@@H](NC(=O)C(=NO)c4nc(N)sc4Cl)C3SC2)n1 (stereo partly drawn) [Compound 45, (7R)-7-[2-(2-Amino-5-chlorothiazol-4-yl)-2-hydroxyiminoacetylamino]-3-(3-methyl-[1,2,4]oxadiazol-5-ylsulfanyl)-8-oxo-5-thia-1-aza-bicyclo[4.2.0]oct-2-ene-2-carboxylic acid] | 1 µg/mL (≈ 1.93 µM) | 0.5 µg/mL (≈ 0.965 µM) | 4 µg/mL (≈ 7.72 µM) | 4 µg/mL (≈ 7.72 µM) | 0.125 µg/mL (≈ 0.241 µM) | 0.5 µg/mL (≈ 0.965 µM) |  |  |  |  |  |  | 
NC(=O)NCCSCc1cnccc1SC1=C(C(=O)O)N2C(=O)[C@@H](NC(=O)/C(=N\O)c3nc(N)sc3Cl)[C@H]2SC1 [Compound 30] |  |  |  |  |  |  | 0.5 µg/mL (≈ 0.775 µM) | 4 µg/mL (≈ 6.2 µM) | 0.125 µg/mL (≈ 0.194 µM) |  | 4 µg/mL (≈ 6.2 µM) | 0.5 µg/mL (≈ 0.775 µM) | 96%
Nc1nc(C(=NO)C(=O)NC2C(=O)N3C(C(=O)O)=C(Sc4ccccc4I)CSC23)cs1 (stereo not shown) [Compound 7] |  |  |  |  |  |  | <0.25 µg/mL | 4 µg/mL (≈ 6.63 µM) |  | 2 µg/mL (≈ 3.31 µM) | 2 µg/mL (≈ 3.31 µM) |  | 
Nc1nc(/C(=N/OC2CCCC2)C(=O)N[C@@H]2C(=O)N3C(C(=O)O)=C(Sc4ccccc4I)CS[C@H]23)cs1 [Compound 9] |  |  |  |  |  |  | <0.25 µg/mL | 2 µg/mL (≈ 2.98 µM) | 2 µg/mL (≈ 2.98 µM) | 2 µg/mL (≈ 2.98 µM) | 1 µg/mL (≈ 1.49 µM) |  | 
Cn1ccnc1SC1=C(C(=O)O)N2C(=O)[C@@H](NC(=O)/C(=N\O)c3nc(N)sc3Cl)[C@H]2SC1 [Compound 31] |  |  |  |  |  |  | 0.5 µg/mL (≈ 0.969 µM) | 32 µg/mL (≈ 62 µM) | 1 µg/mL (≈ 1.94 µM) | 16 µg/mL (≈ 31 µM) | 16 µg/mL (≈ 31 µM) | 0.125 µg/mL (≈ 0.242 µM) | 
Nc1nc(C(=NO)C(=O)N[C@@H]2C(=O)N3C(C(=O)O)=C(Sc4nncs4)CSC23)ns1 (stereo partly drawn) [Compound 50, (7R)-7-[2-(5-Amino-[1,2,4]thiadiazol-3-yl)-2-hydroxyiminoacetylamino]-8-oxo-3-([1,3,4]thiadiazol-2-ylsulfanyl)-5-thia-1-aza-bicyclo [4.2.0]oct-2-ene-2-carboxylic acid] |  | 0.25 µg/mL (≈ 0.514 µM) | 4 µg/mL (≈ 8.22 µM) | 8 µg/mL (≈ 16.4 µM) | 1 µg/mL (≈ 2.06 µM) | 2 µg/mL (≈ 4.11 µM) |  |  |  |  |  |  | 
CON=C(C(=O)NC1C(=O)N2C(C(=O)O)=C(Sc3ccccc3I)CSC12)c1csc(N)n1 (stereo not shown) [Compound 8] |  |  |  |  |  |  | 1 µg/mL (≈ 1.62 µM) | 32 µg/mL (≈ 51.8 µM) |  | 32 µg/mL (≈ 51.8 µM) | 32 µg/mL (≈ 51.8 µM) |  | 

Further lines, with some results ahead:

MIC ([1]; read-out: MIC S. a. Smith) | MIC [2] | MIC [3] | MIC [4] | MIC [5] | MIC [6] | MIC S. a. 29213 [2] | MIC S. a. 76 [4] | MIC E. f. 29212 [5] | MIC E. f. 35667 [6] | MIC S. a. COL [3] | SMILES | MIC S. a. Smith [1] | HSB, human serum binding [7]
 |  |  |  |  |  | <0.015 µg/mL | 32 µg/mL (≈ 56.1 µM) | 16 µg/mL (≈ 28 µM) | 16 µg/mL (≈ 28 µM) |  | CON=C(C(=O)NC1C(=O)N2C(C(=O)O)=C(Sc3ccc(Br)cc3)CSC12)c1csc(N)n1 (stereo not shown) [Compound 6] |  | 
 |  |  |  |  |  | 1 µg/mL (≈ 1.75 µM) | 8 µg/mL (≈ 14 µM) | 8 µg/mL (≈ 14 µM) | 8 µg/mL (≈ 14 µM) | 4 µg/mL (≈ 7.01 µM) | N#Cc1ccccc1SC1=C(C(=O)O)N2C(=O)[C@@H](NC(=O)/C(=N\OC3CCCC3)c3csc(N)n3)[C@H]2SC1 [Compound 12] |  | 
 | 1 µg/mL (≈ 1.7 µM) | 8 µg/mL (≈ 13.6 µM) | 16 µg/mL (≈ 27.1 µM) | 32 µg/mL (≈ 54.3 µM) | 16 µg/mL (≈ 27.1 µM) |  |  |  |  |  | Nc1nc(/C(=N/OCCF)C(=O)N[C@@H]2C(=O)N3C(C(=O)O)=C(Sc4ccnn4-c4ccccc4)CS[C@H]23)cs1 [Compound 14] |  | 
 | 0.25 µg/mL (≈ 0.442 µM) | 1 µg/mL (≈ 1.77 µM) | 1 µg/mL (≈ 1.77 µM) | 0.25 µg/mL (≈ 0.442 µM) | 1 µg/mL (≈ 1.77 µM) |  |  |  |  |  | CSc1nnc(SC2=C(C(=O)O)N3C(=O)[C@@H](NC(=O)C(=NO)c4nc(N)sc4Cl)C3SC2)s1 (stereo partly drawn) [Compound 44, (7R)-7-[2-(2-Amino-5-chlorothiazol-4-yl)-2-hydroxyiminoacetylamino]-3-(5-methylsulfanyl-[1,3,4]thiadiazol-2-ylsulfanyl)-8-oxo-5-thia-1-aza-bicyclo[4.2.0]oct-2-ene-2-carboxylic acid] |  | 
